Test results taken from PMC10630888, “Nuclear ERK1/2 signaling potentiation enhances neuroprotection and cognition via Importinα1/KPNA2” (EMBO Molecular Medicine, 2023).

What was measured:
[1] = test system: corticostriatal synapses on dSPNs; assay: Patch clamp, HFS-LTD at corticostriatal synapses on dSPNs; assay type: cell-based, mouse; conditions: peptide 50 μM intracellularly, mean, RB5 n = 7 cells, Scr n = 5 cells
Method: Brain slices containing both the striatum and the cortex were prepared as described (Trusel et al, [2015]). Mice were anesthetized by isoflurane and decapitated, and their brains were rapidly transferred to ice‐cold dissecting aCSF containing (in mM): 110 Choline‐Cl, 2.5 KCl, 1.25 NaH2PO4, 7 MgCl26H2O, 0.5 CaCl2, 25 NaHCO3, 25 D‐glucose, 11.6 ascorbic acid, saturated with 95% O2 and 5% CO2. Horizontal corticostriatal slices (270 μm thick; patch‐clamp recordings) were cut in the dissecting aCSF using a Vibratome 1000S slicer (Leica, Italy), then transferred to normal aCSF containing (in mM): 115 NaCl, 3.5 KCl, 1.2 NaH2PO4, 1.3 MgCl26H2O, 2 CaCl2, 25 NaHCO3, and 25 D‐glucose and aerated with 95% O2 and 5% CO2. Following 20 min of incubation at 32°C, slices were kept at RT. During experiments, slices were continuously perfused with aCFS at a rate of 2 ml/min at 28°C. […]
SPNs were clamped at a holding membrane potential of −80 mV. […] Series resistance (range 15–25 MW) was monitored at regular intervals throughout the recording and presented minimal variations (≤20%) in the analyzed cells. […]
The occurrence and magnitude of synaptic plasticity was evaluated by comparing the normalized EPSP amplitudes from the last 5 min of baseline recordings with the corresponding values at 20–30 min after HFS (HFS‐LTD). […]

[2] = test system: mutant huntingtin (mHtt); assay: Mutant huntingtin inclusions in striatum of zQ175 females after RB5; assay type: in vivo, mouse; conditions: RB5 for 9 days
Method: Immunofluorescence was performed as described in Papale et al ([2016]). Briefly, 1 h after blocking in 5% normal goat serum, slices were incubated overnight at 4°C with the following primary antibodies: anti‐phospho (Ser10)‐acetylated (Lys14) histone H3 (1:1,000, Millipore), anti‐phospho‐S6 ribosomal protein (Ser235/236) (1:200, Cell Signaling Technology) anti‐phospho‐S6 ribosomal protein (Ser240/244) (1:200, Cell Signaling), cleaved caspase‐3 (1:200, Cell Signaling Technology), anti‐mutant Huntingtin (1:100, Developmental Studies Hybridoma Bank, University of Iowa, #MW8), and NeuN (1:1,000, Millipore). […]
In ex‐vivo and in‐vivo immunofluorescence experiments, the number of p‐S6 or p‐AcH3 immunoreactive neurons among NeuN‐positive neurons was counted in 2–3 consecutive striatal sections per mouse in four fields per section. Caspase 3‐positive cells were quantified among NeuN‐positive neurons in each slide and expressed as percentage (ratio between caspase‐3‐positive cells and total NeuN‐positive neurons) for each field acquired through the slide. The number of cells showing mutant Huntingtin inclusions were expressed as a percentage of mutant Huntingtin‐positive cells among DAPI‐positive cells. […]

SCR: ineffective Scramble version of RB5 containing a TAT sequence (GRKKRRQRRRPPRVGPGVPEGVGVAVFGVKEPGQTGDVGPVGE) [reference compound]
Normalized EPSP amplitude after HFS (20–30 min) versus baseline ([1]; listed as Scr): 76.7653 | Normalized EPSP amplitude after HFS (20–30 min) versus baseline ([1]; listed as control peptide): had no effect on plasticity induction

GRKKRRQRRRPPQGGGGGEPRRTEGVGPGVPGEVEMVKGQPFDV [RB5, six D-amino acids, acetylated N-terminus]
mHtt aggregation in striatum [2]: insufficient to attenuate the mHtt aggregation
